Experiments:
Cytochrome P450 3A4 = Cytochrome P450 3A4 (Homo sapiens, UniProt P08684); test: Inhibition of CYP3A4 (unknown origin); format: ADME
[1] = Unbound trough plasma concentration Brown Norway rat at 30 mg/kg, po; format: ADME, organism-based; settings: in vivo
[2] = molecular target: T1, Phosphatidylinositol 4,5-bisphosphate 3-kinase catalytic subunit delta isoform (Homo sapiens, UniProt O00329); test: Inhibition of PI3Kdelta in human Ramos cells assessed as reduction in anti-IgM-antibody-induced phosphorylation of AKT at Ser473 residue preincubated for 20 mins followed by anti-IgM antibody stimulation and measured after 30 mins by alphascreen assay; format: cell-based
T1 sequence (O00329 whole entry): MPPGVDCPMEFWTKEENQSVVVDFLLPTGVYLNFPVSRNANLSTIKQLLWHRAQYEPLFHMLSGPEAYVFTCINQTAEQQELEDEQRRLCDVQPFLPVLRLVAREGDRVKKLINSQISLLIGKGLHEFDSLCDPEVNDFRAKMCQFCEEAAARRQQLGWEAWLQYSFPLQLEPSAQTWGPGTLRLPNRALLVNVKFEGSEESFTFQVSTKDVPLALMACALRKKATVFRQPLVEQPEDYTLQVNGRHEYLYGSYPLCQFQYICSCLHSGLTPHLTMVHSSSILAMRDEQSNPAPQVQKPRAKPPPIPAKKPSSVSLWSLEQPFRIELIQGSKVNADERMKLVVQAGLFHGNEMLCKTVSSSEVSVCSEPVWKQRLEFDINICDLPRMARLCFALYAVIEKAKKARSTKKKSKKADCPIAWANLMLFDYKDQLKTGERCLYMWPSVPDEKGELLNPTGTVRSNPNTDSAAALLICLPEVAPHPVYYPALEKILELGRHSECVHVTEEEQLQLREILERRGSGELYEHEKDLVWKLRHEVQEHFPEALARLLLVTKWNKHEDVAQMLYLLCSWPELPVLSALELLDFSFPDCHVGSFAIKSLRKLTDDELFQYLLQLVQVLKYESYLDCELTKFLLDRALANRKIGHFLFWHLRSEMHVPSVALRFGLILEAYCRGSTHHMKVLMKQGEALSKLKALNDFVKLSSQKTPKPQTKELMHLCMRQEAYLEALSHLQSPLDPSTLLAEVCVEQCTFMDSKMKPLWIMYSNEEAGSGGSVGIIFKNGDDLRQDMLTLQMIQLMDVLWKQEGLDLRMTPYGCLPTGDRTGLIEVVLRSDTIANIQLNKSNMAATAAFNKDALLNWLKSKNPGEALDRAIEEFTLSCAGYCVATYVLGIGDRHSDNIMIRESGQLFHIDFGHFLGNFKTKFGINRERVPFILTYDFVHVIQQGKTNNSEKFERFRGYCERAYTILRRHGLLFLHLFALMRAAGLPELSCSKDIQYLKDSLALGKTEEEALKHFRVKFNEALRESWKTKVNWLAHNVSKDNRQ

[3] = molecular target: T2, Phosphatidylinositol 4,5-bisphosphate 3-kinase catalytic subunit delta isoform (Mus musculus, UniProt O35904); test: Inhibition of mouse PI3Kdelta
T2 sequence (O35904 whole entry): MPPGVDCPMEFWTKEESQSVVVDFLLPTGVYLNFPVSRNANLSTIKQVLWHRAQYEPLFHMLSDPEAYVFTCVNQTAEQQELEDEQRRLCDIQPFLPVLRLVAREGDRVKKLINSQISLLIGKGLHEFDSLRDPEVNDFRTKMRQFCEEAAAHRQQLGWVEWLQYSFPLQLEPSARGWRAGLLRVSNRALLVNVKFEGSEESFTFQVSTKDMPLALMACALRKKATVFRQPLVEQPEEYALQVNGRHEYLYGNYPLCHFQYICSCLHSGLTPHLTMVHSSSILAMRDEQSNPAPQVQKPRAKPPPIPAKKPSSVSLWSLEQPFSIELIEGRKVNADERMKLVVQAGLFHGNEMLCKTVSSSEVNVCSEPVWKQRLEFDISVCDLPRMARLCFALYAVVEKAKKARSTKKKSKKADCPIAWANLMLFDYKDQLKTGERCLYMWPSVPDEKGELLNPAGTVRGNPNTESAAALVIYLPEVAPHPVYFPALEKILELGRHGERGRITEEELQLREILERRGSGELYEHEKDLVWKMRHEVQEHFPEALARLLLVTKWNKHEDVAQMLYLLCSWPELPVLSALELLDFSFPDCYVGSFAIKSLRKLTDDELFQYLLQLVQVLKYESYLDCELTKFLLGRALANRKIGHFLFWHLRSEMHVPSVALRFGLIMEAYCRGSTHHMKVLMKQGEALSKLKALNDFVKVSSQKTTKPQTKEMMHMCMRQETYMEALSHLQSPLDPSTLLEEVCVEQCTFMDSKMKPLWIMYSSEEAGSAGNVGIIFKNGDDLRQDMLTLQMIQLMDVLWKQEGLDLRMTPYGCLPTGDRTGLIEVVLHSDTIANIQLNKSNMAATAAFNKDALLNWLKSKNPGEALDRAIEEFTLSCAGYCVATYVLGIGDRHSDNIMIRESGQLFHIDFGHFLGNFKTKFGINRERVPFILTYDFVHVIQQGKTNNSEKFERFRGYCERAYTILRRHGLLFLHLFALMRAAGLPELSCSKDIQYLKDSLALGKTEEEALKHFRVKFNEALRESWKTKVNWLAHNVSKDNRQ

[4] = Volume of distribution in C57BL/6 mouse; format: ADME; settings: in vivo
[5] = Protein binding in C57BL/6 mouse plasma; format: ADME, cell-free; settings: read-out: PPB (converted)
[6] = molecular target: T3, Solute carrier organic anion transporter family member 1B1 (Homo sapiens, UniProt Q9Y6L6); test: Inhibition of OATP1B1 (unknown origin)
T3 sequence (Q9Y6L6 whole entry): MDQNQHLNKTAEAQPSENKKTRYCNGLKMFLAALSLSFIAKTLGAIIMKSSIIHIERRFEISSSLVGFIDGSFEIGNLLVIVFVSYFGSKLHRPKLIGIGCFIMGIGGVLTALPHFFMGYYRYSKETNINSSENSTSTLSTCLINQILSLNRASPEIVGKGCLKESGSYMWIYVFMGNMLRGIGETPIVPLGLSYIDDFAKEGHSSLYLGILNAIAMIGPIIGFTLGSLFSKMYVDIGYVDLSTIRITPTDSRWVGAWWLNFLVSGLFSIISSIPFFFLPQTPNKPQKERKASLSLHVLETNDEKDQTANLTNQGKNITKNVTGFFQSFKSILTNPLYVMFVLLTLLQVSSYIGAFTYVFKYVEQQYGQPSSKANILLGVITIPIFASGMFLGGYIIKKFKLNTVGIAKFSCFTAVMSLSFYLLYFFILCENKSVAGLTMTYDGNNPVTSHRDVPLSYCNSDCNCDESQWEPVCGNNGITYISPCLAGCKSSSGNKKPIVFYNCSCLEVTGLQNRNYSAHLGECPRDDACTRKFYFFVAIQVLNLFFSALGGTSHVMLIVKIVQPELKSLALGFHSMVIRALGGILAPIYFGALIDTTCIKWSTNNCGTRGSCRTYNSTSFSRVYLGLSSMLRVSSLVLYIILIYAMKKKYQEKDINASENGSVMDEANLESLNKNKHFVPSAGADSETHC

[7] = Plasma protein binding in Brown Norway rat at 10 mg/kg, po; format: ADME, organism-based; settings: read-out: PPB (converted)

Cytochrome P450 3A4, sequence (P08684 whole entry): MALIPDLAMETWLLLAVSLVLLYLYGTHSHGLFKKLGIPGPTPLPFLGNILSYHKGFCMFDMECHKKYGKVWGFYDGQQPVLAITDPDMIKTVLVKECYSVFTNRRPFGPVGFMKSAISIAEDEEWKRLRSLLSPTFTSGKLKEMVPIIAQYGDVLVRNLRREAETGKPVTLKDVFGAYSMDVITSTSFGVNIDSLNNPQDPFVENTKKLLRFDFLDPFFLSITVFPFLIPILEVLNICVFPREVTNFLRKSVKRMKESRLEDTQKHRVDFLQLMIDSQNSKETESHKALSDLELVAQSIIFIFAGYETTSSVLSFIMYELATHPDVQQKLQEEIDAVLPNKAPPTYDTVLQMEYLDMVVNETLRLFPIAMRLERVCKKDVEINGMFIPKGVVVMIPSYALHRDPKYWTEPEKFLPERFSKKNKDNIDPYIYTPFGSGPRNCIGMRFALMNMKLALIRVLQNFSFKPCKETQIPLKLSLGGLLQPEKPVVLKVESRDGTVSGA

- IC50 (Cytochrome P450 3A4): > 50000 nM
- fCmin [1]: 62 nM
- IC50 [2]: 20 nM
- IC50 [3]: 2.2 nM
- Vd [4]: 0.2 L/kg
- fraction unbound [5]: 0.47
- inhibition (INH) [6]: Not Active
- fraction unbound [7]: 0.59
SMILES: CCn1c(-c2cnc(C)nc2)nc2c(N[C@H]3CCN(C(=O)C4CC4)C3)ncnc21
